Experimental data from US10399940B2, “Substituted pyrrolidines and methods of use” (AbbVie S.à.r.l., priority 2016, dated 2019).
Where two headings read alike, the source gives them in different places.

Target: T1, F508delCFTR (Homo sapiens, UniProt P13569, DEL508-508)
T1 construct: expressed in transfected cells; host or cells: CFBE41o- (human lung derived epithelial cell line), doxycycline-inducible expression
Assay: Cell Surface Expression-Horse Radish Peroxidase (CSE-HRP) assay
Type: cell-based
Conditions: CFBE41o-F508delCFTR-HRP cells; for Maximum % activity (with co-corrector): with co-corrector (2 μM); for Maximum % activity (with co-corrector) / Maximum % activity (without co-corrector): normalized to on-plate positive control, highest concentration 20 μM
Description: Cell Surface Expression-Horse Radish Peroxidase (CSE-HRP) Assay
A cellular assay for measuring the F508delCFTR cell surface expression after correction with test compounds either without or with a co-corrector (2 μM of 3-[(2R,4R)-4-({[1-(2,2-difluoro-1,3-benzodioxol-5-yl)cyclopropyl]carbonyl}amino)-7-methoxy-3,4-dihydro-2H-chromen-2-yl]benzoic acid), was developed in human lung derived epithelial cell line (CFBE41o-) (Veit G et al, (2012) Mol Biol Cell. 23(21): 4188-4202). The development was achieved by expressing the F508delCFTR mutation along with a horseradish peroxidase (HRP) in the fourth exofacial loop, and then measuring the HRP activity using luminescence readout from these cells, CFBE41o-F508delCFTR-HRP, that were incubated overnight with the test corrector compounds, either without or with the co-corrector. For this primary assay, the CFBE41o-F508delCFTR-HRP cells were plated in 384-well plates (Greiner Bio-one; Cat 781080) at 4,000 cells/well along with 0.5 μg/mL doxycycline to induce the F508delCFTR-HRP expression and further incubated at 37° C., 5% CO2 for 72 hours. The test compounds were then added either without or with a co-corrector at the required concentrations and further incubated for 18-24 hours at 33° C. The highest concentration tested was 20 μM with an 8-point concentration response curve using a 3-fold dilution in both the test compound without or with the co-corrector. Three replicate plates were run to determine one EC50. All plates contained negative controls (dimethyl sulfoxide, DMSO) and positive control (2 μM of 3-[(2R,4R)-4-({[1-(2,2-difluoro-1,3-benzodioxol-5-yl)cyclopropyl]carbonyl}amino)-7-methoxy-3,4-dihydro-2H-chromen-2-yl]benzoic acid) as well as on-plate concentration response of the positive control. Post incubation, the plates were washed 5× times with Dulbecco's phosphate buffered saline (DPBS), followed by the addition of the HRP substrate, luminol (50 μL), and measuring the HRP activity using luminescence readout on EnVision® Multilabel Plate Reader (Perkin Elmer; product number 2104-0010). The raw counts from the experiment were analyzed using Accelrys® Assay Explorer v3.3.
Z′ greater than 0.5 was used as passing quality control criteria for the plates.
The Z′ is defined as: 1−[3*SDPositive Control+3*SDNegative Control/Absolute(MeanPositive Control−MeanNegative Control)] wherein “SD” is standard deviation.
The % activity measured at each of the 8 test concentrations of the test compound added either without or with a co-corrector (2 μM of 3-[(2R,4R)-4-({[1-(2,2-difluoro-1,3-benzodioxol-5-yl)cyclopropyl]carbonyl}amino)-7-methoxy-3,4-dihydro-2H-chromen-2-yl]benzoic acid) was normalized to the on-plate positive control using the following formulae: % activity(Test compound without co-corrector)=[(test compound without co-corrector response−DMSO response)/(positive control response−DMSO response)]*100 % activity(Test compound with co-corrector)=[(test compound with co-corrector response−DMSO response)/(positive control response−DMSO response)]*100
The maximum % activity achieved for the test compound either without or with a co-corrector at any tested concentration is presented in Table 1 along with the respective EC50's calculated using the following general sigmoidal curve with variable Hill slope equation (described as Model 42 in the Accelrys® Assay Explorer v3.3 software): y=(a−d)/(1+(x/c)^b)+d
General sigmoidal curve with concentration, response, top, bottom, EC50 and Hill slope. This model describes a sigmoidal curve with an adjustable baseline, a. The equation can be used to fit curves where response is either increasing or decreasing with respect to the independent variable, “x”. • “x” is a concentration of drug under test. • “y” is the response. • “a” is the maximum response, and “d” is the minimum response • “c” is the inflection point (EC50) for the curve. That is, “y” is halfway between the lower and upper asymptotes when x=c. “b” is the slope-factor or Hill coefficient. […]

[1] = test compound without co-corrector, 18-24 hours at 33° C., read-out: EC50 (without co-corrector)
[2] = with co-corrector (2 μM of 3-[(2R,4R)-4-({[1-(2,2-difluoro-1,3-benzodioxol-5-yl)cyclopropyl]carbonyl}amino)-7-methoxy-3,4-dihydro-2H-chromen-2-yl]benzoic acid), read-out: EC50 (with co-corrector)

T1 sequence (P13569 with tags, fused parts or gaps DEL508-508): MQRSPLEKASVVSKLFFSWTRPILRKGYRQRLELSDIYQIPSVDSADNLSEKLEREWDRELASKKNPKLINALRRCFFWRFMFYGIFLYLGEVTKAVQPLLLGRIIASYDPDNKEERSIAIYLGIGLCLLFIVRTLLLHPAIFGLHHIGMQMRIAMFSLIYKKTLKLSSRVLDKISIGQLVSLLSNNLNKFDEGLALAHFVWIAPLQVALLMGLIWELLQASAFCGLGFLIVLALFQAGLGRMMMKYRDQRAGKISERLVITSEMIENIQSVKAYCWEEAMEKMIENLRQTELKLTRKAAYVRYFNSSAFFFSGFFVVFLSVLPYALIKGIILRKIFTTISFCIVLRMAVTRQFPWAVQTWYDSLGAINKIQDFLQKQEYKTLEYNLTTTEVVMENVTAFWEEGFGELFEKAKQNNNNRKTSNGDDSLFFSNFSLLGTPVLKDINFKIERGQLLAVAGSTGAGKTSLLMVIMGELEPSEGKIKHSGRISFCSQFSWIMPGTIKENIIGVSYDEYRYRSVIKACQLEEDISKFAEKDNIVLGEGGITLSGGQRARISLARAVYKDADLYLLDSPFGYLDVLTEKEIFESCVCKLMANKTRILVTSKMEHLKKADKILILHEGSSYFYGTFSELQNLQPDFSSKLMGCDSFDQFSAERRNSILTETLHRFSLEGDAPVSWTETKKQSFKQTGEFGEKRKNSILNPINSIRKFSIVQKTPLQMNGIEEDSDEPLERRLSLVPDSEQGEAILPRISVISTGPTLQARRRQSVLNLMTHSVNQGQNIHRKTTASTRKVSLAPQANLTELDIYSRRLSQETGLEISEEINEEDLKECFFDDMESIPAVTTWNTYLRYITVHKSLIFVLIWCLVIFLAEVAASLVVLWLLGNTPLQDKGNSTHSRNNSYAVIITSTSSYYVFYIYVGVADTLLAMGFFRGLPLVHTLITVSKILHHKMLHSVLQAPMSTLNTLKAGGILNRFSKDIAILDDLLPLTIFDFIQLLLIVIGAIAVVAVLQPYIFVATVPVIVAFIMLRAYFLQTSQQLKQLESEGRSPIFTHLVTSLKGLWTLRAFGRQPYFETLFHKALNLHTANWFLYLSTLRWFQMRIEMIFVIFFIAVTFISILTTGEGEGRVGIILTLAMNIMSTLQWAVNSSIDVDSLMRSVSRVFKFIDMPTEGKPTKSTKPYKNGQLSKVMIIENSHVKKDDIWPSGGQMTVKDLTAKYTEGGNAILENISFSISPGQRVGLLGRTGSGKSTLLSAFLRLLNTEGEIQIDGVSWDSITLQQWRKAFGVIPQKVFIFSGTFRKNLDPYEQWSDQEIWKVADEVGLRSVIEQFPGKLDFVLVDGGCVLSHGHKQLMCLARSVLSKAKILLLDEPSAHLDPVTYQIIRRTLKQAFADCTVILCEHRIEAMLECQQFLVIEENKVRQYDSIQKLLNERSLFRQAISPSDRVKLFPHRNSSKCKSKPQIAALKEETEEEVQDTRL

Row | Structure (SMILES) | EC50 [1] | EC50 [2] | Maximum % activity (with co-corrector) | Maximum % activity (without co-corrector)
1 | COc1ccc(C(F)(F)F)cc1COC1[C@@H](c2cccnc2N(C)C)N(C(=O)C2CCCCC2)[C@@H](C(=O)O)[C@@H]1C(C)(C)C (mixture of isomers) [Example 15, rac-(2R,3S,5R)-3-tert-butyl-1-(cyclohexanecarbonyl)-5-[2-(dimethylamino)pyridin-3-yl]-4-{[2-methoxy-5-(trifluoromethyl)phenyl]methoxy}pyrrolidine-2-carboxylic acid] | 1000 to 10000 nM | 1000 to 10000 nM | +++ (≥350) | ++ (≥100 and <200)
2 | COc1ccc(C(F)(F)F)cc1COC1[C@@H](c2ccccc2)N(C(=O)C2CCCCC2)[C@@H](C(=O)NS(C)(=O)=O)[C@@H]1C(C)(C)C (mixture of isomers) [Example 16, rac-(2R,3S,5R)-3-tert-butyl-1-(cyclohexanecarbonyl)-N-(methanesulfonyl)-4-{[2-methoxy-5-(trifluoromethyl)phenyl]methoxy}-5-phenylpyrrolidine-2-carboxamide] | 1000 to 10000 nM | 1000 to 10000 nM | ++ (≥150 and <350) | + (<100)
3 | COc1ccc(Cl)cc1COC1[C@@H](c2ccccc2)N(C(=O)OC(C)C)[C@@H](C(=O)O)[C@@H]1C(C)(C)C (mixture of isomers) [Example 17, rac-(2R,3S,5R)-3-tert-butyl-4-[(5-chloro-2-methoxyphenyl)methoxy]-5-phenyl-1-{[(propan-2-yl)oxy]carbonyl}pyrrolidine-2-carboxylic acid] | 1000 to 10000 nM | 1000 to 10000 nM | +++ (≥350) | ++ (≥100 and <200)
4 | COc1ncc(C(F)(F)F)cc1CO[C@@H]1[C@@H](C(C)(C)C)[C@H](C(=O)O)N(C(=O)C2CCCCC2)[C@@H]1c1ccccc1 (racemic) [Example 20, rac-(2R,3S,4R,5R)-3-tert-butyl-1-(cyclohexanecarbonyl)-4-{[2-methoxy-5-(trifluoromethyl)pyridin-3-yl]methoxy}-5-phenylpyrrolidine-2-carboxylic acid] | < 1000 nM | < 1000 nM | +++ (≥350) | ++ (≥100 and <200)
5 | COc1ccc(C(F)(F)F)cc1CO[C@@H]1[C@@H](C(C)(C)C)[C@H](C(=O)O)N(C(=O)N(C(C)C)C(C)C)[C@@H]1c1ccccc1 (single isomer, unassigned) [Example 8, (2R*,3S*,4R*,5R*)-3-tert-butyl-1-[di(propan-2-yl)carbamoyl]-4-{[2-methoxy-5-(trifluoromethyl)phenyl]methoxy}-5-phenylpyrrolidine-2-carboxylic acid] | > 10000 nM | > 10000 nM | + (<150) | + (<100)
6 | COc1ccc(C(F)(F)F)cc1CO[C@H]1[C@H](C(C)(C)C)[C@@H](C(=O)O)N(C(=O)N(C(C)C)C(C)C)[C@H]1c1ccccc1 (single isomer, unassigned) [Example 9, (2S*,3R*,4S*,5S*)-3-tert-butyl-1-[di(propan-2-yl)carbamoyl]-4-{[2-methoxy-5-(trifluoromethyl)phenyl]methoxy}-5-phenylpyrrolidine-2-carboxylic acid] | > 10000 nM | > 10000 nM | + (<150) | + (<100)
7 | COc1ccc(C(F)(F)F)cc1CO[C@@H]1[C@@H](C(C)(C)C)[C@H](C(=O)O)N(C(=O)C2CCCCC2)[C@@H]1c1ccccc1 [Example 18, (2R,3S,4R,5R)-3-tert-butyl-1-(cyclohexanecarbonyl)-4-{[2-methoxy-5-(trifluoromethyl)phenyl]methoxy}-5-phenylpyrrolidine-2-carboxylic acid] | > 10000 nM | 1000 to 10000 nM | ++ (≥150 and <350) | + (<100)
8 | COc1ccc(C(F)(F)F)cc1CO[C@H]1[C@H](C(C)(C)C)[C@@H](C(=O)O)N(C(=O)C2CCCCC2)[C@H]1c1ccccc1 [Example 19, (2S,3R,4S,5S)-3-tert-butyl-1-(cyclohexanecarbonyl)-4-{[2-methoxy-5-(trifluoromethyl)phenyl]methoxy}-5-phenylpyrrolidine-2-carboxylic acid] | < 1000 nM | < 1000 nM | +++ (≥350) | +++ (≥200)

Other lines, results leading:

Row | EC50 [1] | EC50 [2] | Maximum % activity (with co-corrector) | Maximum % activity (without co-corrector) | Structure (SMILES)
9 | 1000 to 10000 nM | 1000 to 10000 nM | +++ (≥350) | + (<100) | COc1cc(C(F)(F)F)ccc1CO[C@@H]1[C@@H](C(C)(C)C)[C@H](C(=O)O)N(C(=O)OC2CCC2)[C@@H]1c1ccccc1 (racemic) [Example 34, rac-(2R,3S,4R,5R)-3-tert-butyl-1-[(cyclobutyloxy)carbonyl]-4-{[2-methoxy-4-(trifluoromethyl)phenyl]methoxy}-5-phenylpyrrolidine-2-carboxylic acid]
10 | 1000 to 10000 nM | 1000 to 10000 nM | +++ (≥350) | ++ (≥100 and <200) | COc1ccc(Cl)cc1CO[C@@H]1[C@@H](C(C)(C)C)[C@H](C(=O)O)N(C(=O)OC2CCC2)[C@@H]1c1ccccc1 (racemic) [Example 35, rac-(2R,3S,4R,5R)-3-tert-butyl-4-[(5-chloro-2-methoxyphenyl)methoxy]-1-[(cyclobutyloxy)carbonyl]-5-phenylpyrrolidine-2-carboxylic acid]
11 | < 1000 nM | < 1000 nM | ++ (≥150 and <350) | + (<100) | COc1ncc(C(F)(F)F)cc1CO[C@H]1[C@H](C(C)(C)C)[C@@H](C(=O)O)N(C(=O)[C@H]2CCCCO2)[C@H]1c1cccc(C(C)(C)C)c1 (single isomer, unassigned) [Example 157]
12 | < 1000 nM | < 1000 nM | +++ (≥350) | + (<100) | COc1ncc(C(F)(F)F)cc1CO[C@H]1[C@H](C(C)(C)C)[C@@H](C(=O)O)N(C(=O)[C@@H]2CCCC[C@H]2C(F)(F)F)[C@H]1c1cccnc1OC(C)C (single isomer, unassigned) [Example 282]
13 | < 1000 nM | 1000 to 10000 nM | +++ (≥350) | + (<100) | COc1ncc(C(F)(F)F)cc1CO[C@H]1[C@H](C(C)(C)C)[C@@H](C(=O)O)N(C(=O)[C@H]2CCCC[C@@H]2C(F)(F)F)[C@H]1c1cccnc1OC(C)C (single isomer, unassigned) [Example 283]
14 | > 10000 nM | 1000 to 10000 nM | ++ (≥150 and <350) | + (<100) | COCCS(=O)(=O)NC(=O)[C@@H]1[C@@H](C(C)(C)C)[C@H](OCc2cc(C(F)(F)F)ccc2OC)[C@H](c2ccccc2)N1C(=O)C1CCCCC1 [Example 21, (2S,3R,4S,5S)-3-tert-butyl-1-(cyclohexanecarbonyl)-N-(2-methoxyethanesulfonyl)-4-{[2-methoxy-5-(trifluoromethyl)phenyl]methoxy}-5-phenylpyrrolidine-2-carboxamide]
